This test concerns HBV. Nature of the test: Activity of test compounds on viral production from HepAD38 cells (viral load by qPCR of HBV core sequence). It is filed as cell-based. The settings on record: Hepatitis B virus, 120 h, 5 days, supernatant HBV DNA by qPCR vs DMSO control, read-out: viral load lowering EC50 (Activity). On the procedure: Assay Measuring Activity of Test Compounds on Viral Production from HepAD38 Cells
HepAD38 cells grown in a T-150 flask (Corning, cat#: 430825) with Growth Medium (DMEM/F12 (1:1) (Hyclone, cat#: SH30023.02), 1× Pen/Strep (Invitrogen, cat#: 15140-122), 10% FBS (Tissue Culture Biologics, cat#: 101), 250 μg/mL G418 (Alfa Aesar, cat#: J62671), 1 μg/mL Tetracycline (Teknova, cat#: T3320)) were detached with 0.25% trypsin-EDTA (Invitrogen, cat#: 25200-056). Tetracycline-free treatment medium (15 mL DMEM/F12 (1:1) 1×Pen/step, with 2% FBS, Tet-system approved (Clontech, cat#: 631106) were then added to mix, transferred into a 50 ml conical tube (Falcon, cat#: 21008-918) and spun at 1300 rpm for 5 min. Pelleted cells were then re-suspended/washed with 50 mL of 1×DPBS (Invitrogen, cat#: 14190-136) 2 times and 50 mL treatment medium twice. HepAD38 cells were then re-suspended with 10 mL of treatment medium, syringed and counted. Wells of 96-well clear bottom TC plate (Corning, cat#: 3904) were seeded at 50,000 cells/well in 180 μL of treatment medium, and 20 μL of either 10% DMSO (Sigma, cat#: D4540) as controls or a 10× solution of test compounds in 10% DMSO in treatment media was added for a final compound concentration starting at 10 μM, and plates were incubated in 5% CO2 incubator at 37° C. for 5 days.
Subsequently viral load production was assayed by quantitative PCR (qPCR) of the HBV core sequence. PCR reaction mixture containing forward primers HBV-f 5′-CTGTGCCTTGGGTGGCTTT-3′ (IDT DNA), Reverse primers HBV-r 5′-[…]-3′ (IDT DNA), Fluorescent TaqMan™ Probes HBV-probe 5′-FAM/AGCTCCAAA/ZEN/[…]/3IABkFQ-3′ (IDT DNA), 10 μL/well of PerfeCTa® qPCR ToughMix® (Quanta Biosciences, Cat#: 95114-05K), and 6 μL/well of DEPC water (Alfa Aesar, cat#: J62087) was prepared. Four μL of supernatant was added to 16 μL of the reaction mixture in a qPCR plate (Applied Biosytems, Cat#: 4309849), sealed with a film (Applied Biosystems, Cat#: 4311971), centrifuged for a few seconds, and subsequently run on an Applied Biosystems VIIA7. The PCR mixture was incubated at 45° C. for 5 min, then 95° C. for 10 min, followed by 40 cycles of 10 seconds at 95° C. and 20 seconds at 60° C. Viral load was quantified against known HBV DNA standards by using ViiA™ 7 Software. Viral load in the supernatant from wells with treated cells were compared against viral load in supernatant from DMSO control wells (≥ 3 per plate). Cell viability assay was performed with CellTiter-Glo Luminescent Cell Viability Assay (Promega, cat#: G7573) with modification. Mixed appropriate amount of CellTiter-Glo (CTG) 1×DPBS in a 1:1 ratio, added 100 uL of the mixture to each well followed completely removal of all supernatant in each well without touching cell surface. Incubated the plate at room temperature for 10 min on an orbital shaker, and then read the plate with a plate reader (TECAN M1000 or Envision). EC50 or CC50 values were calculated through curve-fitting of the four-parameter nonlinear-logistic-regression model (GraphPad Prism or Dotmatics). CC50 values were all >10 μM.

Usually EC50 stands for the concentration needed to bring the measured effect to its halfway point.

Take `COC(=O)Cc1ccc(-c2cccc(C3CC(C(=O)Nc4ccc(F)c(Cl)c4)N(C)S(=O)(=O)N3)c2)cc1` (centres unmarked) [Example 15, Methyl 2-(3′-(5-((3-chloro-4-fluorophenyl)carbamoyl)-6-methyl-1,1-dioxido-1,2,6-thiadiazinan-3-yl)-[1,1′-biphenyl]-4-yl)acetate]: the EC50 was below 1 µM.
Turning to `Cc1ccc(-c2cccc([C@@H]3C[C@H](C(=O)Nc4ccc(F)c(Cl)c4)N(C)S(=O)(=O)N3)c2)c(Cl)c1` (single isomer, unassigned) [6-Isomer II], the EC50 was in the range of 1 to 5 µM.

Values taken from patent US20220081433A1, “CYCLIC SULFAMIDE COMPOUNDS FOR TREATMENT OF HBV” (Assembly Biosciences, Inc., priority 2018, published 2022).
